Experimental data published in PubChem BioAssay (NCI).
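Following 48 hours of exposure in 96-well plates, responses at five concentrations were used to interpolate endpoints linearly. Abbreviation: GI50, concentration required for 50% inhibition of growth. The concentration for full growth arrest is given as TGI.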

What was measured:
Assay in all cases: NCI tumour cell line growth inhibition, 48 h
KM12 colon = tested on: KM12 colon
SK-MEL-28 melanoma = tested on: SK-MEL-28 melanoma
SW-620 colon = tested on: SW-620 colon
SF-268 CNS = tested on: SF-268 CNS
IGROV1 ovarian = tested on: IGROV1 ovarian
SK-MEL-2 melanoma = tested on: SK-MEL-2 melanoma
HT29 colon = tested on: HT29 colon
MOLT-4 leukemia = tested on: MOLT-4 leukemia
T-47D breast = tested on: T-47D breast
SNB-19 CNS = tested on: SNB-19 CNS

Structure (SMILES)	TGI (KM12 colon)	TGI (SK-MEL-28 melanoma)	TGI (SW-620 colon)	TGI (SF-268 CNS)	TGI (IGROV1 ovarian)	TGI (SK-MEL-2 melanoma)	TGI (HT29 colon)	TGI (MOLT-4 leukemia)	TGI (T-47D breast)	TGI (SNB-19 CNS)	GI50 (KM12 colon)	GI50 (SK-MEL-28 melanoma)	GI50 (SW-620 colon)	GI50 (SF-268 CNS)	GI50 (IGROV1 ovarian)	GI50 (SK-MEL-2 melanoma)	GI50 (HT29 colon)	GI50 (MOLT-4 leukemia)	GI50 (T-47D breast)	GI50 (SNB-19 CNS)
COc1ccc2c(=O)c3ccoc3n(CC=C(C)C)c2c1	> 100 µM	> 100 µM	> 100 µM	> 100 µM	> 100 µM	> 100 µM	> 100 µM	> 100 µM	> 100 µM	> 100 µM										
O=C1C(=O)c2ccccc2C(O)=C1CC=C(Br)Br	64.9 µM	> 100 µM	> 100 µM	> 100 µM	93.8 µM	30.9 µM	53.5 µM	> 100 µM	81.2 µM	77.8 µM	3.14 µM	12.8 µM	3.07 µM	2.66 µM	3.91 µM	12.2 µM	3.25 µM	2.83 µM	15.4 µM	4.67 µM
Cc1cc2nc3c4cc(N)ccc4n(CCN(C)C)c3nc2cc1C	7.11 µM	5.77 µM	10.9 µM	6.89 µM	4.62 µM	3.89 µM	6.59 µM	> 31.9 µM	12.3 µM	11.4 µM	0.882 µM	2.08 µM	0.381 µM	1.43 µM	0.5 µM	1.34 µM	0.478 µM	0.376 µM	1.71 µM	0.669 µM
N#Cc1nc2c(S(=O)(=O)c3ccccc3)c(N)n(Cc3cccnc3)c2nc1C#N	> 100 µM	> 100 µM	> 100 µM	22.7 µM		> 100 µM	> 100 µM	> 100 µM	52.1 µM	72.4 µM	> 100 µM	27.8 µM	> 100 µM	4.26 µM		> 100 µM	> 100 µM	> 100 µM	5.8 µM	21.9 µM
COc1cc2cc(Oc3ccc(NC(=O)Nc4cccc(C(F)(F)F)c4)cc3)c(C)nc2cc1OC	5.92 µM	8.37 µM	11.1 µM	15.5 µM	24.9 µM	2.87 µM	6.26 µM	6.87 µM	6.68 µM	15 µM	1.42 µM	1.97 µM	2.28 µM	2.57 µM	2.95 µM	1.28 µM	2.05 µM	1.55 µM	1.61 µM	2.19 µM
NC(N)=N/N=C\c1cccc(OCc2ccccc2)c1	8.33 µM	3.41 µM	3.33 µM	25 µM	23.8 µM	13 µM	4.01 µM	27.8 µM	3.99 µM	23.3 µM	2.41 µM	1.66 µM	1.68 µM	10.9 µM	6.07 µM	3.31 µM	1.83 µM	11.1 µM	1.55 µM	10.3 µM
